One molecule from ChEMBL document CHEMBL1126497, “A new type of cytotoxic annonaceous acetogenin: Giganin from goniothalamus giganteus” (1993) can be followed below.

Converted amounts (≈) assume the structure as drawn.

Holding throughout (format): functional
One test relates to A549. The experiment in a line: The compound was tested for cytotoxicity against A-549 cell in human lung carcinoma. To be noted: read-out: ED50 (the source's name).
A further test deals with MCF7. The test can be described thus: The compound was tested for cytotoxicity against MCF-7 cell in human breast carcinoma. The settings on record: read-out: ED50 (the source's name).
The nature of test [1]: The compound was tested for cytotoxicity against BST cell in brine shrimp. The settings on record: Artemia.
For another test, the system named is HT-29. The experiment in a line: The compound was tested for cytotoxicity against […] in human colon adenocarcinoma. To be noted: read-out: ED50 (the source's name).

The LC50 is the concentration lethal to half of the exposed cells or organisms. Higher therefore signals lower toxicity. On to `CCCCCCCCCCCCCCC(O)C(O)CC/C=C\CCC(O)CCCCCC(O)CC1=CC(C)OC1=O` (centres undefined), for which the EC50 came out at 0.0188 µg/mL (≈ 0.0324 µM) in the test on A549, 1.03 µg/mL (≈ 1.77 µM) in the test with MCF7 and 0.00688 µg/mL (≈ 0.0118 µM) in the test on HT-29. The molecule also gave an LC50 in test [1] of 890 µg/mL (≈ 1530 µM).
